Molecules are shown by their SMILES. Like-named read-outs stand apart in the source and are kept apart here. Marks after values point to notes of the source that are not given here.

For series [1] the following is noted: cited from earlier work.
Series [2] is described as follows: Biodistribution and in vivo dynamic T1-weighted MRI. On the set-up: species or system A/J healthy mice. Conditions: 0.1 mmol Gd/kg i.v. How it is done: Dynamic T 1‐weighted MRI on twelve A/J healthy mice was used to compare the biodistribution of ([Gd(ent‐L2)] and [Gd(BT‐DO3A)] (Gadovist), n = 6 animals each), administered at 0.1 mmol Gd/kg. The MRI monitored the distribution within abdominal tissues for up to 1 h post‐administration MRI images and the pharmacokinetic curves are shown in Figure 6 .
All the procedures and the experiments were conducted according to the national and international laws on experimental animal research (L.D. 26/2014; Directive 2010/63/EU) and under a specific Italian Ministerial Authorization (project research number 46/2015‐PR). Twelve A/J healthy mice (females, 6–7 weeks old, supplied by Envigo RMS S.r.l.) were housed in a controlled environment (22°C, 55% humidity, 15–20 air changes/hour, 12‐h light/dark cycle) with ad libitum access to VRF1 (P) certified pellets and filtered water. To minimize discomfort, the animals were socially housed with enrichment items. Veterinary care was available throughout the study to alleviate any potential pain or distress following procedures. […] The animals were randomly assigned to two experimental groups (n = 6 each, with sample size confirmed via GPower) and underwent to Magnetic Resonance Imaging (MRI) experiments performed using a BioSpec 47/30 preclinical scanner (Bruker Biospin, Ettlingen, Germany) operating at […] (i.e., at a proton Larmor frequency of 125 MHz) and equipped with two‐channel 35 mm RF volume coil. During MRI experiments, all the animals were anaesthetized with isoflurane gas (≈1%) in O2. Anaesthesia was maintained by adjustment of gas level as a function of breath rate. Before injection of each test article, T 1‐weighted spin echo sequences were acquired on the animal in order to check the position of the animal. A series of T 1‐weighted 3D gradient echoscans (repetition time = 50 ms, flip angle = 50°, echo time = 2.8 ms, number of averages = 2, matrix size (3D) = 192 × 192 × 8, field of view = 2.5 × 2.5 × 1.2 cm, acquisition time = 154 s) were then acquired before and after the intravenous administration of a 50 mM saline solution (0.9%) of [Gd(ent‐L2)] (n = 6 mice) and [Gd(BT‐DO3A)] (Gadovist, Bayer Schering, Germany) (n = 6 mice) at an injection rate of ≈2 mL/min through a catheter placed in the tail vein of the animal. Both [Gd(ent‐L2)] and [Gd(BT‐DO3A)] were administered at a dose of 0.1 mmol Gd/kg corresponding to an administration volume of 2 mL kg^−1. The kinetics of the Gd(III)‐complexes was followed up to 60 min post‐injection. After imaging was performed, the mouse was removed from the scanner and returned to the Animal Facility room. At the end of the study all animals were sacrificed by overdose of anaesthesia and cervical dislocation. Unblinded image analysis was performed by positioning the region of interest (ROIs) over liver, kidney, muscle, and blood vessel. ROIs positioning and signal quantification was performed by using a home‐developed plugin, running on Image J.^[ [51] ^]
Signal enhancement (Enh) was calculated using the formula: Enh = 100×(SignalpostCA ‐SignalpreCA)/SignalpreCA, where SignalpreCA and SignalpostCA denote the MR signal before and after administration of contrast agents, respectively. Data were presented as mean ± standard deviation (SD). The sample size (n = 6 per group) was determined a priori using GPower software to ensure adequate statistical power. The Levene's test was employed to assess the homogeneity of variances among groups. For comparisons where homogeneity of variance was confirmed, a one‐way ANalysis Of VAriance (ANOVA) was applied to test the null hypothesis that treatment groups originate from the same distribution. Post‐hoc pairwise multiple comparisons were performed using Tukey's method when significant differences were detected. Statistical analyses and data visualization were conducted using Mathematica (Wolfram, USA), while summary statistics (mean, SD, and standard error) were calculated using Microsoft Excel (USA). […]

The conditions of series [3]: cited from earlier work; for pGd: [Gd^3+]tot = 1 µM, [L]tot = 10 µM; for pGd / logK^c GdL: pH 7.4, calculated from literature constants; for *logKGd(H2L): diprotonated out-of-cage intermediate.
For series [4] the following is noted: 25 °C, cited from earlier work.
The conditions of series [5]: cited from earlier work. The source holds these as a separate data set.
The conditions of series [6]: cited from earlier work. This is another data set of the same source.
For series [7] the following is noted: cited from earlier work. This is another data set of the same source.
The conditions of series [8]: cited from earlier work; for ^298K r 1 [1.5 T] / r 1 ^310K [1.5 T]: water; for τ R: Table 2.
Series [9] is described as follows: Relaxivity at 21 / 400 MHz and 25 °C in 0.15 M NaCl. Conditions: 400 MHz. It counts as physicochemical. How it is done: The relaxivity values were calculated from the longitudinal relaxation time of H2O protons (T 1) measured at 21 MHz on a Stelar relaxometer connected to a Bruker WP80 NMR electromagnet adapted to variable‐field measurements (15−80 MHz proton Larmor frequency). The temperature of the sample holder was controlled with a thermostatted air stream. The longitudinal relaxation time was measured with the “inversion recovery” method (180° – τ – 90°) by using 12 different τ values with typical 90° pulse width of 6.4 µs, 4 scans. The measurements were performed with 1 mM solution of the Gd(III)‐complexes with rac‐L1, ent‐L1, rac‐L2, and ent‐L2 ligands, so the relaxivity values were given as r 1 = […] where T 1p and T 1w were the relaxation time of bulk water protons in the presence and absence of paramagnetic species, respectively. The variable pH relaxivity measurements of Gd(III)‐complexes with rac‐L1, ent‐L1, rac‐L2, and ent‐L2 ligands could be carried out by direct titration of the samples in the pH range 2.5–9.0 (21 MHz, 25 °C, 0.15 M NaCl). The pH was adjusted by stepwise addition of concentrated NaOH or HCl solution.
The stability constant of Gd(III)‐complexes with rac‐L2 and ent‐L2 ligands were determined by the measurement of the proton relaxation rates (r 1) studying the competition reaction of rac‐L2 and ent‐L2 ligands with AAZTA for Gd(III) ion at pH = 4.0 in 0.15 M NaCl solution. In these experiments, the concentration of Gd^3+, rac‐L2, and ent‐L2 ligands was 2.0 mM, while that of the AAZTA was varied between 1.0 and 6.0 mM (5 × 1.5 mL samples). The pH was adjusted to pH 4.0 by stepwise addition of concentrated NaOH or HCl solutions. The samples were kept at 70 °C for a month and then at 25°C for two months in order to attain the equilibrium (the time needed to reach the equilibria was determined by ^1H‐NMR relaxometry). ^1H‐NMR relaxometric measurement of Gd(III) – rac‐L2 – AAZTA and Gd(III) – ent‐L2 – AAZTA systems were performed with a Bruker Avance III 400 (9.4 T) equipped with BB inverse z gradient probe (5 mm). The longitudinal relaxation time (T 1) was measured with the “inversion recovery” method (180° – τ – 90°) by using 12 different τ values with typical 90° pulse width of 12.0 µs, 4 scans at 298 K. The stability constants of [Gd(rac‐L2)] and [Gd(ent‐L2)] complexes were calculated by considering the protonation constants of AAZTA ligand and the stability constant of [Gd(AAZTA)]^− complex (AAZTA: logK 1 ^H = 10.06, logK 2 ^H = 6.50, logK 3 ^H = 3.77, logK 4 ^H = 2.33, logK 5 ^H = 1.51; [Gd(AAZTA)]^−: logK GdL = 18.93, 0.15 M NaCl, 25 °C).^[ [47] ^] The equilibrium constants were calculated with the program PSEQUAD.^[ [48] ^]

Regarding `O=C([O-])CN1CCN(CC(=O)[O-])CCN(C(CO)C(O)CO)CCN(CC(=O)[O-])CC1.[Gd+3]` (stereo not shown) [[Gd(BT‐DO3A)], reference compound], the k1 in series [1] (25 °C) was 3.4e-05 M⁻¹ s⁻¹. Also, the “k d at pH = 7.4” value in series [1] (pH 7.4, 0.1 M NaCl, 25 °C) is on record as 1.35×10^-12 s^−1. Further, the “average maximum signal enhancement in the liver” value in series [2] (3 T, n = 6) is listed as “≈ 110%”. In addition, in series [2] (up to 1 h post-administration), the “wash-in and wash-out kinetics” value was “rapid wash‐in and wash‐out”. The “decrease in signal enhancement in the blood compartment” value in series [2] (within 30 min, 3 T) is listed as at least 50%.

With `CC(O)CN1CCN(CC(=O)O)CCN(CC(=O)O)CCN(CC(=O)O)CC1` (stereo not shown) [HP‐DO3A], the “logK GdL” value in series [3] (0.1 M Me4NCl, 25 °C) is reported as 23.8. For the same molecule, in series [3] (0.1 M Me4NCl), the logKGdHL is 1.10, the pGd is reported as 18.16 and the “logK^c GdL” value is 17.21. Also, in series [3] (0.15 M NaCl, 25 °C), the logKGdLH-1 is given as 11.36^f) and the “*logKGd(H2L)” value is reported as 5.10^f). Further, in [4] (0.1 M Me4NCl), the “logK1^H” value is given as 11.96, the “logK2^H” value is 9.43, the “logK3^H” value is on record as 4.30 and the “logK4^H” value is 3.26. The “ΣlogKi^H” value in series [4] (0.1 M Me4NCl) is listed as 28.95. The “k d at pH = 7.4” value in series [1] (pH 7.4, 0.1 M NaCl, 25 °C) is on record as 1.0 × 10^−11 s^−1. Besides, in series [1] (pH 7.4, 0.15 M NaCl, 25 °C), the “k d at pH = 7.4” value was 1.2 × 10^−11 s^−1. For the same molecule, the “logK ZnL” value in series [5] (0.1 M Me4NCl, 25 °C) was 19.37. Moreover, the logKZnHL in series [5] (0.1 M Me4NCl) was 3.7. For the same molecule, the “logK CuL” value in series [6] (0.1 M Me4NCl, 25 °C) was 22.84. For the same molecule, in series [6] (0.1 M Me4NCl), the logKCuH2L is 2.3 and the logKCuHL was 3.72. The “logK CaL” value in series [7] (0.1 M Me4NCl, 25 °C) is listed as 14.83.

Regarding `O=C(O)CN1CCN(CC(=O)O)Cc2cccc(n2)CN(CC(=O)O)CC1` [PCTA, 3,6,9,15‐tetraazabicyclo[9.3.1]pentadeca‐1(15),11,13‐triene‐3,6,9 triacetic acid], in series [3] (1.0 M KCl), the “logK GdL” value is reported as 20.39, the logKGdLH-1 was 11.10, the pGd is 17.11 and the “*logKGd(H2L)” value is 3.12. In [3] (1.0 M KCl), the “logK^c GdL” value is given as 16.15. Also, in [4] (0.15 M NaCl), the “logK1^H” value was 9.97, the “logK2^H” value was 6.73, the “logK3^H” value was 3.22 and the “logK4^H” value is on record as 1.40. The “ΣlogKi^H” value in series [4] (0.15 M NaCl) is on record as 21.32. In series [4] (1.0 M KCl), the “logK1^H” value is reported as 11.36, the “logK2^H” value is recorded as 7.35, the “logK3^H” value is reported as 3.83 and the “logK4^H” value was 2.12. In series [4] (1.0 M KCl), the “ΣlogKi^H” value is 25.95. Also, in [5] (1.0 M KCl), the “logK ZnL” value is on record as 20.48 and the logKZnHL was 3.10. For the same molecule, in series [6] (1.0 M KCl), the “logK CuL” value is 18.79 and the logKCuHL is listed as 3.58. In addition, in series [7] (1.0 M KCl), the “logK CaL” value is given as 12.72 and the logKCaHL is on record as 3.79.

Consider `O=C([O-])CN1CCN(CC(=O)[O-])CCN(CC(=O)[O-])CCN(CC(=O)[O-])CC1.[Gd+3]` [[Gd(DOTA)]^−], for which the k1 in [1] (0.15 M NaCl, 25 °C) is 1.8e-06 M⁻¹ s⁻¹. Moreover, the “K^HGd(HL)” value in [1] (3.0 M NaClO4, 25 °C) is on record as 14^d) M^-1. In series [1] (25 °C), the k1 was 8.4e-06 M⁻¹ s⁻¹. The “k d at pH = 7.4” value in series [1] (pH 7.4, 0.15 M NaCl, 25 °C) is 7.3×10^-14 s^−1. The “k d at pH = 7.4” value in series [1] (pH 7.4, 25 °C) is recorded as 3.3×10^-14 s^−1. Besides, the k0 in [1] (spontaneous dissociation, 0.15 M NaCl, 25 °C) is recorded as 6.7×10^-11 b) s^-1. In addition, in series [8], the “^298K r 1 [1.5 T]” value was 4.2 mM⁻¹ s⁻¹, the “r 1 ^310K [1.5 T]” value was 3.3 mM⁻¹ s⁻¹, the τ R was 90 ps and the q is reported as 1. In addition, in series [8], the “τ M1” value is 208 ns.

Consider `O=C([O-])CN1CCN(CC(=O)[O-])Cc2cccc(n2)CN(CC(=O)[O-])CC1.[Gd+3]` [[Gd(PCTA)]], for which, in series [8], the “^298K r 1 [1.5 T]” value is 6.4 mM⁻¹ s⁻¹, the “r 1 ^310K [1.5 T]” value was 4.9 mM⁻¹ s⁻¹, the τ R was 63 ps and the q was 2. In series [8], the “τ M1” value is listed as 151 ns and the “τ M2” value was 36 ns.

Molecule `CC1(N(CC(=O)[O-])CC(=O)[O-])CN(CC(=O)[O-])CCN(CC(=O)[O-])C1.[Gd+3]` [[Gd(AAZTA)]^−, reference compound] had a r1p in series [9] of 6.56 ± 0.08 mM⁻¹ s⁻¹. Besides, the “logK GdL” value in series [3] (0.15 M NaCl, 25 °C) was 18.93.
